# Patent US20260309717A1, “PROXIMITY INDUCING SYSTEM AND USES THEREOF” (SORBONNE UNIVERSITE, priority 2022, published 2026)
# Key:
# Assay type in all cases: cell-based
# [1] = molecular target: T1, mCherry-^FIREtag / ^FIREmate-ECFP-Cb5 (Halorhodospira halophila, UniProt P16113, A30V/C69G/D97P/F96I, form not given/G21E/G25R/K17N/M100R/M109L/Q41L/Q99S/S72T/T101G/V83A/Y94W/Y98T); experiment: Recruitment of cytoplasmic protein to the endoplasmic reticulum, HeLa cells; settings: 10 μM
# T1 construct: FIREmate-ECFP-Cb5(100-134) and mCherry-FIREtag in HeLa cells
# T1 sequence (P16113 1-114 A30V/C69G/D97P/F96I/G21E/G25R/K17N/M100R/M109L/Q41L/Q99S/S72T/T101G/V83A/Y94W/Y98T): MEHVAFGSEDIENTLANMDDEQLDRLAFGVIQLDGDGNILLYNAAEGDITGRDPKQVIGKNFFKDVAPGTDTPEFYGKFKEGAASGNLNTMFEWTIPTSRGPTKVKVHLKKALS
# Protocol: FIGS. 7A-E illustrate the recruitment of cytoplasmic proteins to the endoplasmic reticulum with the proximity inducing system described herein. FIG. 7A is a representation of the experimental design wherein HeLa cells co-expressing mCherry-^FIREtag and ^FIREmate-ECFP-Cb5 were treated with 10 μM of match (either HBR-2,5DM or HMBR), and imaged by time-lapse confocal microscopy. FIGS. 7B-C are graphs showing the temporal evolution of the FIRE signal detected upon addition at 0 min of HBR-2,5DM (match1-7C) or HMBR (match2-7D). Data represents the mean values±SD of 17 cells from n=3 independent experiments (7B, D), or of 18 cells from n=3 independent experiments (7C, E). FIGS. 7D-E are sets of representative confocal micrographs of cells before (0 min) and after (5 min) addition of HBR-2,5DM (match1-7D) or HMBR (match2-7E) (mCherry: ex/em 561/606-675 nm; FIRE: ex/em 488/508-570 nm; ECFP: ex/em 445/455-499 nm). […] Scale bars are 20 μm.
# (§1) The confocal micrographs were acquired on a Zeiss LSM 980 Laser Scanning Microscope equipped with a plan apochromat 63x/1.4 NA oil immersion objective. ZEN software was used to collect the data. The images were analyzed using Icy (2.4.0.0) and Fiji (Image J). In short, to track fluorescence signal in a specific organelle, a ROI (region of interest) was determined by masking the signal in the ECFP (Enhanced Cyan Fluorescent Protein) channel with the plug-in HK-means with the following parameters: intensity class equals 100, minimum object size (pixels or px) equals 500, maximum object size (px) equals 1500-3000. The signal intensity of the ROI was tracked over time for each channel by using plug-in Active Contours. The background signal was subtracted. Data were processed using GraphPad Prism v9.3.0.
# To further evaluate the scope of the proximity inducing system described herein and show its versatility, ^FIREmate was anchored at the membrane of various organelles or cellular structures so that ^FIREmate faced the cytosol. ^FIREmate was thus fused: • to the N-terminus of the transmembrane domain (amino acid residues at positions 3131-3259) of Giantin for location at the cis-medial rims of the Golgi apparatus (FIG. 6A), • to the N-terminus of the transmembrane domain (amino acid residues at positions 100-134) of the cytochrome b5 (Cb5) for location at the endoplasmic reticulum membrane (FIG. 7A), and • to the C-terminus of the Lyn11 inner membrane targeting sequence for location at the plasma membrane (FIG. 8A).
# For each construct, an ECFP was inserted between ^FIREmate and the other protein domain/sequence to monitor the localization of the resulting fusion protein (blue fluorescence). Each fusion protein was co-expressed in mammalian cells (HeLa cells or HEK293 cells as indicated) together with mCherry-^FIREtag (red fluorescence). […]
# [2] = test system: mCherry-FKBP-^FIREtag / TOM20-^FIREmate / FRB-ECFP-Giantin; experiment: Orthogonality with FRB-FKBP-rapamycin CIP system, confocal microscopy, HeLa cells; settings: simultaneous addition of 10 μM HBR-2,5DM and 500 nM rapamycin
# Protocol: FIG. 12A is a representation of the experimental design wherein HeLa cells co-expressing mCherry-FKBP-^FIREtag, TOM20-^FIREmate and FRB-ECFP-Giantin were treated with 10 μM of match (i.e., HBR-2,5DM) and 500 nM rapamycin, and imaged by time-lapse confocal microscopy. FIG. 12B is a set of representative confocal micrographs of cells before and after addition of HBR-2,5DM (match1) and rapamycin (rap) (mCherry: ex/em 561/606-675 nm; FIRE: ex/em 488/508-570 nm; ECFP: ex/em 445/455-499 nm). Scale bars are 20 μm.
# as §1, with “v9.3.0. […]” for “v9.3.0.”
# [3] = molecular target: T2, NLS-mCherry-^FIREmate / NES-ECFP-^FIREtag (Halorhodospira halophila, UniProt P16113, A30V/C69G/D97P/F96I, form not given/G21E/G25R/K17N/M100R/M109L/Q41L/Q99S/S72T/T101G/V83A/Y94W/Y98T); experiment: Nuclear export of proteins (nucleocytoplasmic trafficking), confocal microscopy, HeLa cells; settings: 10 μM, 4 min
# T2 construct: NLS-mCherry-FIREmate and NES-ECFP-FIREtag in HeLa cells
# T2 sequence (P16113 1-114 A30V/C69G/D97P/F96I/G21E/G25R/K17N/M100R/M109L/Q41L/Q99S/S72T/T101G/V83A/Y94W/Y98T): T1 sequence (P16113 1-114 A30V/C69G/D97P/F96I/G21E/G25R/K17N/M100R/M109L/Q41L/Q99S/S72T/T101G/V83A/Y94W/Y98T)
# Protocol: FIGS. 13A-D illustrate the nuclear export of proteins mediated by the proximity inducing system described herein. FIG. 13A is a representation of the experimental design wherein HeLa cell co-expressing NLS-mCherry-FIR_^FIREmate and NES-ECFP-^FIREtag were treated with 10 μM of match (i.e., HBR-2,5DM) and imaged by time-lapse confocal microscopy. FIG. 13B is a graph showing the temporal evolution of the ratio nucleus-to-cytoplasm mCherry fluorescence intensities of n=5 cells from 2 independent experiments. FIG. 13C is a graph showing the temporal evolution of the FIRE signal detected upon addition of HBR-2,5DM at 0 min of n=5 cells from 2 independent experiments. […]
# The confocal micrographs were acquired on a Zeiss LSM 980 Laser Scanning Microscope equipped with a plan apochromat 63x/1.4 NA oil immersion objective. […] The images were analyzed using Icy (2.4.0.0) and Fiji (Image J). In short, to track fluorescence signal in a specific organelle, a ROI (region of interest) was determined by masking the signal in the ECFP (Enhanced Cyan Fluorescent Protein) channel with the plug-in HK-means with the following parameters: intensity class equals 100, minimum object size (pixels or px) equals 500, maximum object size (px) equals 1500-3000. […]
smiles,measurement,setting,value
"Cc1cc(/C=C2\SC(=S)NC2=O)c(C)cc1O [HBR-2,5DM, (Z)-5-(4-hydroxy-2,5-dimethylbenzylidene)-2-thioxo-1,3-thiazolidin-4-one]",FIRE signal at the endoplasmic reticulum,[1],simultaneous appearance of green fluorescence
same,translocation of mCherry-^FIREtag to the endoplasmic reticulum,[1],rapid translocation of mCherry-^FIREtag to the organelle
same,translocation of mCherry-FKBP-^FIREtag,[2],triggered the translocation of mCherry-FKBP-^FIREtag to the Golgi apparatus and to the mitochondria
same,FIRE signal in the cytoplasm,[3],strong cytoplasmic green fluorescence
same,cytoplasmic localization of the formed protein complex (nuclear export of NLS-mCherry-^FIREmate),[3],efficient cytoplasmic localization of the formed protein complex
